Assay results taken from patent publication US9029393B2, “Adenosine receptor ligands and uses thereof” (Kaldi Pharma, SAS, priority 2009, dated 2015).
Counter-ions that a name gives are not always drawn. One block for each molecule: values may come before it.

What was measured:
hA2A receptor = hA2A receptor (Homo sapiens (Human), UniProt P29274); experiment: A2A FRET-based binding assay; settings: HEK GFP-A2A stable cell line, dyed CGS15943-derived probe
Description: Assay protocol: Compounds were evaluated on an in-vitro binding assay developed based on the technology described in the patent WO 98/55873. This assay was developed from hA2A receptor that was fused at its amino terminal domain to Green Fluorescent Protein (GFP) and stably expressed in HEK cells. The probe used is a dyed ligand derived from the non-selective CGS15943. For the FRET-binding experiment, HEK GFP-A2A stable cell line was seeded onto poly-D-lysine precoated black-walled 96-well plates in normal growth media (0.7 10^5 cells per well). After 24 hours of culture at 37° C., the cell media was removed and cells were washed. The tested compounds were applied on cells by the FLIPR^TETRA® (Molecular Devices®) and incubated for 10 minutes prior to addition of the dyed probe. When a drug interacts with the receptor, the FRET signal measured by the variation of GFP fluorescence at 510 nm is disrupted. The time curves of ligand binding were recorded during 1000 seconds. (excitation Light Emitting Diode 470-495 nm, emission 510+/−10 nm). The percentage of inhibition allows the evaluation of the inhibitory activity of compounds in comparison to the antagonist A2A reference CGS15943. The dose-inhibition curves were fitted with variable slope, using GraphPad® Prism software, in order to determine […] and Ki values. The dose-inhibition experiments were all performed in duplicate, three times independently.

human A2A receptor = human A2A receptor (Homo sapiens, UniProt P29274); experiment: A2A-antagonist Ca++ functional assay (CGS21680 at EC80); format: cell-based; settings: HEK cells expressing GFP-hA2A and Gα15, inhibition of CGS21680 (EC80)-induced Ca2+ increase
Text: Assay protocol: HEK cells stably expressing the human A2A receptor fused at its amino terminal domain to GFP, and cultured in Modified Eagle's Medium supplemented with 10% FCS, were transiently transfected by electroporation with plasmid DNA encoding the promiscuous G protein Gα15 in order to deviate the natural coupling of the receptor from AMPc production to calcium (Ca^2+) release pathway (Brabet et al., Neuropharmacology 37:1043-1051, 1998). Receptor activity was detected by changes in intracellular Ca^2+, measured using the fluorescent Ca^2+ sensitive dye, Fluo4AM (Molecular Probes®).
Cells were plated after transfection onto polyornithine coated, clear bottom, black-walled, 96-well plates and cultured for 24 hours. The day of the test, cells were washed with freshly prepared buffer B (HBSS 1×, Hepes 20 mM, MgSO4.7H2O 1 mM, Na2CO3 3.3 mM, CaCl2-2H2O 1.3 mM, 0.5% BSA, Probenecid 2.5 mM) and loaded at 37° C. in 5% CO2 for 1.5 hours with buffer B containing 1 μM Fluo4AM and 0.1 mg/mL Pluronic Acid. Afterwards cells were washed twice with buffer B and 50 μL of this buffer were added to each well. The tested compounds were incubated […] before addition of CGS21680 (used as reference agonist) at a concentration leading to 80% of its maximal activity (EC80). Afterwards, the intracellular Ca^2+ measurements were performed on a 60s kinetic by detection of the fluorescence intensity (excitation 485 nm, emission 525 nm) using the fluorescence microplate reader FlexStation® (Molecular Devices®). All data reflect three independent experiments. Dose-response curves were fitted by using the sigmoidal dose-response (variable slope) analyze in GraphPad Prism® program (San Diego) and IC50 of antagonist compound was calculated. Dose-response experiments were all performed in triplicate, three times independently.

Chain of hA2A receptor (P29274 whole entry, the tested form may be a part): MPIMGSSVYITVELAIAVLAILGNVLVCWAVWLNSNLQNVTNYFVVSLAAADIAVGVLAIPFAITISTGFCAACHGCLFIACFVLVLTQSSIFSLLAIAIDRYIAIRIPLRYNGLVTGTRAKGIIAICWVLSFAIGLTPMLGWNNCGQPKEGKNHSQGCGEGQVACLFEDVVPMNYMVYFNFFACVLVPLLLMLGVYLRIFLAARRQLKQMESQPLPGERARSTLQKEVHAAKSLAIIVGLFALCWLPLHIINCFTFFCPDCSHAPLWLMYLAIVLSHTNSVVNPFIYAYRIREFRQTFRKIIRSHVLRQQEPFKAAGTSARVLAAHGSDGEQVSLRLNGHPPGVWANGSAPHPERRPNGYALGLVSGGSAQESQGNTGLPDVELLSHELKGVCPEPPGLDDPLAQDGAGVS

melting point: > 250 °C
SMILES: Cc1ccc2ncc(-c3nn(C)c4cc(C(=O)N5CCCCCC5)ccc34)n2c1.Cl

melting point: > 250 °C
SMILES: Cl.Cn1nc(-c2cnc3ccc(C4CC4)cn23)c2ccc(C(=O)N3CCCCCC3)cc21

melting point: 248 to 249 °C
SMILES: Cl.Cn1nc(-c2cnc3ccc(F)cn23)c2ccc(C(=O)N3CCCC4CCCCC43)cc21 (stereo not drawn)

melting point: 235 to 245 °C
SMILES: Cl.Cn1nc(-c2cnc3ccc(F)cn23)c2ccc(C(=O)N(CC3CC3)C3CCCCC3)cc21

melting point: 240 to 245 °C
SMILES: Cl.Cn1nc(-c2cnc3ccc(F)cn23)c2ccc(C(=O)N3CCCCCCCC3)cc21 (hydrate or solvate)

melting point: > 250 °C
SMILES: Cl.Cn1nc(-c2cnc3ccc(F)cn23)c2ccc(C(=O)N3CCCCC3)cc21 (hydrate or solvate)

melting point: > 250 °C
SMILES: Cl.Cn1nc(-c2cnc3ccc(C#N)cn23)c2ccc(C(=O)N3CCCCC3)cc21 (hydrate or solvate)

melting point: 241 to 249 °C
SMILES: Cl.Cn1nc(-c2cnc3ccc(F)cn23)c2ccc(C(=O)N3CCCCCCC3)cc21 (hydrate or solvate) [Example 97, Azocan-1-yl-[3-(6-fluoro-imidazo[1,2-a]pyridin-3-yl)-1-methyl-1H-indazol-6-yl]-methanone, chlorhydrate salt]

melting point: 230 to 235 °C
SMILES: COC[C@H]1CCCN1C(=O)c1ccc2c(-c3cnc4ccc(C#N)cn34)nn(C)c2c1.Cl (hydrate or solvate) [Example 101, 3-(1-Methyl-6-{[(2R)-2-(methoxymethyl)pyrrolidin-1-yl]carbonyl}-1H-indazol-3-yl)imidazo[1,2-a]pyridine-6-carbonitrile, chlorhydrate salt]

Ki (hA2A receptor): 4 ± 1 nM | IC50 (human A2A receptor): 15 ± 4 nM
SMILES: Cn1nc(-c2cnc3ccc(F)cn23)c2ccc(C(=O)N3CCCCCC3)cc21 [Example 79, Azepan-1-yl-[3-(6-fluoro-imidazo[1,2-a]pyridin-3-yl)-1-methyl-1H-indazol-6-yl]-methanone]

Ki (hA2A receptor): 177 ± 5 nM | melting point: 202 to 204 °C
SMILES: Cl.Cn1nc(-c2cnc3ccc(C(F)(F)F)cn23)c2ccc(C(=O)N3CCCCCC3)cc21 [Example 85, [6-(Azepan-1-ylcarbonyl)]-1-methyl-3[6-(trifluoromethyl)-imidazo[1,2-a]pyridin-3-yl]-1H-indazole, HCl salt]

Ki (hA2A receptor): 3 ± 0.4 nM | IC50 (human A2A receptor): 21 ± 8 nM
SMILES: Cn1nc(-c2cnc3ccc(F)cn23)c2ccc(C(=O)N3CCCCCCC3)cc21 [Example 97, Azocan-1-yl-[3-(6-fluoro-imidazo[1,2-a]pyridin-3-yl)-1-methyl-1H-indazol-6-yl]-methanone, chlorhydrate salt]

The next lines start with the molecule.

SMILES: Cl.O=C(c1ccc2c(-c3cnc4ccc(F)cn34)nn(CCc3ccccc3)c2c1)N1CCCCCC1
melting point: 139 to 140 °C

SMILES: COCCOCCn1nc(-c2cnc3ccc(F)cn23)c2ccc(C(=O)N3CCCCCC3)cc21.Cl
melting point: 159 to 165 °C

SMILES: Cl.O=C(c1ccc2c(-c3cnc4ccc(F)cn34)nn(CCN3CCOCC3)c2c1)N1CCCCCC1
melting point: 230 to 245 °C

SMILES: CCN(C(=O)c1ccc2c(-c3cnc4ccc(F)cn34)noc2c1)C(C)C.Cl
melting point: 219 to 225 °C

SMILES: Cl.O=C(c1ccc2c(-c3cnc4ccc(F)cn34)noc2c1)N1CCCCC1
melting point: 203 to 205 °C

SMILES: Cl.N#Cc1ccc2ncc(-c3noc4cc(C(=O)N5CCCCCC5)ccc34)n2c1
melting point: 234 to 235 °C

SMILES: Cl.Cn1nc(-c2cnc3ccc(C#N)cn23)c2ccc(C(=O)N3CCCCCC3)cc21
melting point: > 250 °C

SMILES: CCc1ccc2ncc(-c3nn(C)c4cc(C(=O)N5CCCCCC5)ccc34)n2c1.Cl
melting point: > 250 °C

SMILES: Cl.Cn1nc(-c2cnc3ccccn23)c2ccc(C(=O)N3CCCCCC3)cc21
melting point: > 250 °C

SMILES: CN(C(=O)c1ccc2c(-c3cnc4ccc(F)cn34)nn(C)c2c1)c1ccccc1.Cl
melting point: > 250 °C

SMILES: CCN(C(=O)c1ccc2c(-c3cnc4ccc(F)cn34)nn(C)c2c1)C(C)C.Cl
melting point: > 250 °C

SMILES: CCN(C(=O)c1ccc(C(=O)c2cnc3ccc(C#N)cn23)cc1)C1CCCCC1 [Example 7, 4-(6-Cyano-imidazo[1,2-a]pyridine-3-carbonyl)-N-cyclohexyl-N-ethyl-benzamide]
Ki (hA2A receptor): 171 ± 104 nM

SMILES: CCN(C(=O)c1ccc(C(=O)c2cnc3ccc(Br)cn23)cc1)C1CCCCC1 [Example 10, 4-(6-Bromo-imidazo[1,2-a]pyridine-3-carbonyl)-N-cyclohexyl-N-ethyl-benzamide]
Ki (hA2A receptor): 108 ± 74 nM | IC50 (human A2A receptor): 891 ± 571 nM

SMILES: CCN(C(=O)c1ccc(C(=O)c2cnc3ccccn23)nc1)C1CCCCC1 [Example 23, N-Cyclohexyl-N-ethyl-6-(imidazo[1,2-a]pyridine-3-carbonyl)-nicotinamide]
Ki (hA2A receptor): 264 ± 141 nM | IC50 (human A2A receptor): 403 ± 163 nM

SMILES: CCN(C(=O)c1ccc(C(=O)c2cnc3ccc(F)cn23)cc1Cl)C1CCCCC1 [Example 24, 2-Chloro-N-cyclohexyl-N-ethyl-4-(6-fluoro-imidazo[1,2-a]pyridine-3-carbonyl)-benzamide]
Ki (hA2A receptor): 34 ± 9 nM

SMILES: O=C(c1ccc(C(=O)N(C2CCCCC2)C2CCCCC2)cc1)c1cnc2ccccn12 [Example 48, N,N-Dicyclohexyl-4-(imidazo[1,2-a]pyridine-3-carbonyl)-benzamide]
Ki (hA2A receptor): 138 ± 115 nM | IC50 (human A2A receptor): 945 ± 419 nM

SMILES: CN(C(=O)c1ccc(C(=O)c2cnc3ccc(F)cn23)cc1)c1ccccc1 [Example 50, 4-(6-Fluoro-imidazo[1,2-a]pyridine-3-carbonyl)-N-methyl-N-phenyl-benzamide]
melting point: 131 to 135 °C

SMILES: CCN(C(=O)c1ccc(C(=O)c2cnc3ccccn23)cc1)c1ccccc1 [Example 56, N-Ethyl-4-(imidazo[1,2-a]pyridine-3-carbonyl)-N-phenyl-benzamide]
Ki (hA2A receptor): 188 ± 63 nM | melting point: 141 to 145 °C

SMILES: N#Cc1ccc2ncc(C(=O)c3ccc(C(=O)N4CCCCCC4)cc3F)n2c1 [Example 73, 3-[4-(Azepan-1-ylcarbonyl)-2-fluorobenzoyl]imidazo[1,2-a]pyridine-6-carbonitrile]
melting point: 128 to 130 °C

SMILES: COC[C@H]1CCCN1C(=O)c1ccc2c(-c3cnc4ccc(C#N)cn34)nn(C)c2c1 [Example 101, 3-(1-Methyl-6-{[(2R)-2-(methoxymethyl)pyrrolidin-1-yl]carbonyl}-1H-indazol-3-yl)imidazo[1,2-a]pyridine-6-carbonitrile, chlorhydrate salt]
Ki (hA2A receptor): 3 nM | IC50 (human A2A receptor): 12 ± 4 nM

SMILES: Cl.O=C(c1ccc2c(-c3cnc4ccc(F)cn34)nn(Cc3ccccc3)c2c1)N1CCCCCC1 [Example 107, Azepan-1-yl-[1-benzyl-3-(6-fluoro-imidazo[1,2-a]pyridin-3-yl)-1H-indazol-6-yl]-methanone, HCl salt]
Ki (hA2A receptor): 34 ± 5 nM | melting point: 134 to 135 °C

SMILES: CN1CCN(C(=O)n2nc(-c3cnc4ccc(F)cn34)c3ccc(C(=O)N4CCCCCC4)cc32)CC1.Cl [Example 111, Azepan-1-yl-[3-(6-fluoro-imidazo[1,2-a]pyridin-3-yl)-1-[(4-methylpiperazin-1-yl)carbonyl]-1H-indazol-6-yl]-methanone, HCl salt]
Ki (hA2A receptor): 291 ± 30 nM | melting point: 193 to 199 °C

SMILES: N#Cc1ccc2ncc(-c3noc4cc(C(=O)N5CCOCC5)ccc34)n2c1 [Example 125, 3-[6-(Morpholin-4-ylcarbonyl)-1,2-benzisoxazol-3-yl]imidazo[1,2-a]pyridine-6-carbonitrile, HCl salt]
Ki (hA2A receptor): 147 ± 54 nM

SMILES: O=C(c1ccc2c(-c3cnc4ccc(F)cn34)c[nH]c2c1)N1CCCCCC1 [Example 134, 3-[6-(Azepan-1-ylcarbonyl)-1H-indol-3-yl]-6-fluoroimidazo[1,2-a]pyridine]
Ki (hA2A receptor): 348 ± 95 nM

SMILES: Nc1nc(-c2cnc3ccc(F)cn23)c2ccc(C(=O)N3CCCCCC3)cc2n1 [Example 136, 2-Amino-7-(azepan-1-ylcarbonyl)-4-(6-fluoroimidazo[1,2-a]pyridin-3-yl)quinazoline, HCl salt]
Ki (hA2A receptor): 84 ± 11 nM

SMILES: CCN(C(=O)c1ccc(C(=O)c2cnc3ccc(Cl)nn23)cc1)C1CCCCC1 [Example 139, N-Cyclohexyl-N-ethyl-4-(6-chloroimidazo[1,2-b]pyridazin-3-ylcarbonyl)-benzamide]
Ki (hA2A receptor): 459 ± 270 nM
